Where “and” joins values, the source holds several entries; their conditions need not be identical. Identical values can stand only once.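 1) Cells in 96-well plates. 2) Compound, 48 h, 5 concentrations. 3) Linear interpolation between surrounding doses. 4) Unreached endpoint = highest concentration. GI50 is the concentration that inhibits growth by half. The concentration for full growth arrest is given as TGI.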
Experiments:
Assay in all cases: NCI tumour cell line growth inhibition, 48 h
P388/ADR leukemia = tested on: P388/ADR leukemia
CCRF-CEM leukemia = tested on: CCRF-CEM leukemia
HOP-18 NSCLC = tested on: HOP-18 NSCLC
NCI/ADR-RES ovarian = tested on: NCI/ADR-RES ovarian
HCT-15 colon = tested on: HCT-15 colon
KM20L2 colon = tested on: KM20L2 colon
UO-31 renal = tested on: UO-31 renal
OVCAR-4 ovarian = tested on: OVCAR-4 ovarian
SK-MEL-28 melanoma = tested on: SK-MEL-28 melanoma
SF-268 CNS = tested on: SF-268 CNS
RPMI-8226 leukemia = tested on: RPMI-8226 leukemia
CAKI-1 renal = tested on: CAKI-1 renal
DMS 273 small cell lung = tested on: DMS 273 small cell lung
A549 NSCLC = tested on: A549 NSCLC
HCC-2998 colon = tested on: HCC-2998 colon
SF-539 CNS = tested on: SF-539 CNS
OVCAR-8 ovarian = tested on: OVCAR-8 ovarian
SF-295 CNS = tested on: SF-295 CNS
SW-620 colon = tested on: SW-620 colon
DLD-1 colon = tested on: DLD-1 colon
MALME-3M melanoma = tested on: MALME-3M melanoma
P388 leukemia = tested on: P388 leukemia
NCI-H23 lung = tested on: NCI-H23 lung
HL-60(TB) leukemia = tested on: HL-60(TB) leukemia
MCF7 breast = tested on: MCF7 breast
K-562 leukemia = tested on: K-562 leukemia
SNB-75 CNS = tested on: SNB-75 CNS
NCI-H226 lung = tested on: NCI-H226 lung
SN12K1 renal = tested on: SN12K1 renal
RXF 393 renal = tested on: RXF 393 renal
KM12 colon = tested on: KM12 colon
OVCAR-5 ovarian = tested on: OVCAR-5 ovarian
XF 498 CNS = tested on: XF 498 CNS
HOP-92 NSCLC = tested on: HOP-92 NSCLC
SK-MEL-2 melanoma = tested on: SK-MEL-2 melanoma
M19-MEL melanoma = tested on: M19-MEL melanoma
HT29 colon = tested on: HT29 colon
SK-MEL-5 melanoma = tested on: SK-MEL-5 melanoma
IGROV1 ovarian = tested on: IGROV1 ovarian
OVCAR-3 ovarian = tested on: OVCAR-3 ovarian
LOX IMVI melanoma = tested on: LOX IMVI melanoma
SK-OV-3 ovarian = tested on: SK-OV-3 ovarian
COLO 205 colon = tested on: COLO 205 colon
MOLT-4 leukemia = tested on: MOLT-4 leukemia
A498 renal = tested on: A498 renal
EKVX NSCLC = tested on: EKVX NSCLC
SN12C renal = tested on: SN12C renal
HCT-116 colon = tested on: HCT-116 colon
NCI-H522 lung = tested on: NCI-H522 lung
HOP-62 NSCLC = tested on: HOP-62 NSCLC
NCI-H460 lung = tested on: NCI-H460 lung
SNB-19 CNS = tested on: SNB-19 CNS
U251 CNS = tested on: U251 CNS
UACC-62 melanoma = tested on: UACC-62 melanoma
UACC-257 melanoma = tested on: UACC-257 melanoma
SNB-78 CNS = tested on: SNB-78 CNS
DMS 114 small cell lung = tested on: DMS 114 small cell lung

In the case of `C=C1C(=O)[C@@]23CC[C@H]4[C@@](C)(CCC[C@@]4(C)C(=O)OC)[C@@H]2CC[C@]1(O)C3`, the TGI (P388/ADR leukemia) is reported as 0.224 µM, the TGI (CCRF-CEM leukemia) is reported as greater than 100 µM and the TGI (HOP-18 NSCLC) is reported as 3.62 µM and 3.51 µM. For the same molecule, the TGI (NCI/ADR-RES ovarian) was 2.87 µM, the TGI (HCT-15 colon) was 2.85 µM and 2.71 µM and the GI50 (KM20L2 colon) was 1.91 µM. For the same molecule, the TGI (KM20L2 colon) was 3.83 µM, the GI50 (UO-31 renal) was 1.63 µM and the TGI (UO-31 renal) was 3 µM and 4.03 µM. For the same molecule, the GI50 (OVCAR-4 ovarian) was 1.69 µM, the TGI (OVCAR-4 ovarian) was 3.12 µM and 3.31 µM and the TGI (SK-MEL-28 melanoma) was 3.24 µM and 3.32 µM. The GI50 (SF-268 CNS) was 1.55 µM, the TGI (SF-268 CNS) was 3 µM and 3.35 µM and the TGI (RPMI-8226 leukemia) was 0.969 µM. The TGI (CAKI-1 renal) was 2.96 µM, the GI50 (DMS 273 small cell lung) was 1.32 µM and the TGI (DMS 273 small cell lung) was 2.66 µM and 3.08 µM. The TGI (A549 NSCLC) was 10.4 µM and 10.6 µM, the TGI (HCC-2998 colon) was 8.55 µM and the GI50 (SF-539 CNS) was 3.53 µM. For the same molecule, the TGI (SF-539 CNS) was 11.2 µM and 3.18 µM, the TGI (OVCAR-8 ovarian) was 2.96 µM and 2.85 µM and the GI50 (SF-295 CNS) was 9.14 µM. The TGI (SF-295 CNS) was 21.9 µM and 18.1 µM, the GI50 (SW-620 colon) was 0.878 µM and the TGI (SW-620 colon) was 2.84 µM and 1.85 µM. For the same molecule, the TGI (DLD-1 colon) was 1.33 µM, the GI50 (MALME-3M melanoma) was 2.51 µM and the TGI (MALME-3M melanoma) was 9.8 µM. For the same molecule, the TGI (P388 leukemia) was 0.424 µM, the GI50 (NCI-H23 lung) was 2.41 µM and the TGI (NCI-H23 lung) was 5.05 µM and 2.96 µM. For the same molecule, the GI50 (HL-60(TB) leukemia) was 0.27 µM, the TGI (HL-60(TB) leukemia) was 1.35 µM and 0.967 µM and the GI50 (MCF7 breast) was 0.326 µM. For the same molecule, the TGI (MCF7 breast) was 1.35 µM and 3.79 µM, the GI50 (K-562 leukemia) was 0.463 µM and the GI50 (SNB-75 CNS) was 3.69 µM. The TGI (SNB-75 CNS) was 12 µM and 6.94 µM, the GI50 (NCI-H226 lung) was 1.78 µM and the TGI (NCI-H226 lung) was 3.38 µM and 7.45 µM. The GI50 (SN12K1 renal) was 1.67 µM, the TGI (SN12K1 renal) was 3.15 µM and 2.82 µM and the GI50 (RXF 393 renal) was 3.06 µM. The TGI (RXF 393 renal) was 7.97 µM, the GI50 (KM12 colon) was 1.97 µM and the TGI (KM12 colon) was 3.6 µM and 5.81 µM. The GI50 (OVCAR-5 ovarian) was 3.95 µM, the TGI (OVCAR-5 ovarian) was 11.8 µM and 3.54 µM and the TGI (XF 498 CNS) was 3.17 µM and 3.15 µM. The GI50 (HOP-92 NSCLC) was 1.48 µM, the TGI (HOP-92 NSCLC) was 2.88 µM and 3.21 µM and the GI50 (SK-MEL-2 melanoma) was 1.5 µM. For the same molecule, the TGI (SK-MEL-2 melanoma) was 2.82 µM and 3.12 µM, the GI50 (M19-MEL melanoma) was 1.13 µM and the TGI (M19-MEL melanoma) was 2.46 µM and 2.91 µM. The GI50 (HT29 colon) was 0.911 µM, the TGI (HT29 colon) was 3.14 µM and 2.71 µM and the TGI (SK-MEL-5 melanoma) was 3.65 µM. For the same molecule, the TGI (IGROV1 ovarian) was 3.07 µM and 3 µM, the TGI (OVCAR-3 ovarian) was 3.48 µM and 3.25 µM and the GI50 (LOX IMVI melanoma) was 1.34 µM. The TGI (LOX IMVI melanoma) was 2.64 µM and 2.22 µM, the TGI (SK-OV-3 ovarian) was 33.4 µM and the TGI (COLO 205 colon) was 3.83 µM and 3.18 µM. The TGI (MOLT-4 leukemia) was 0.98 µM, the GI50 (A498 renal) was 1.49 µM and the TGI (A498 renal) was 3.09 µM. For the same molecule, the TGI (EKVX NSCLC) was 3.5 µM, the TGI (SN12C renal) was 3.06 µM and 3.23 µM and the TGI (HCT-116 colon) was 2.21 µM and 2.17 µM. It also gave a TGI (NCI-H522 lung) of 2.94 µM, a TGI (HOP-62 NSCLC) of 34.7 µM and a GI50 (NCI-H460 lung) of 1.8 µM. The TGI (NCI-H460 lung) was 3.45 µM and 13 µM, the GI50 (SNB-19 CNS) was 4.79 µM and the TGI (SNB-19 CNS) was 16.6 µM and 27.5 µM. For the same molecule, the GI50 (U251 CNS) was 2.2 µM, the TGI (U251 CNS) was 4.67 µM and 11.3 µM and the GI50 (UACC-62 melanoma) was 1.33 µM. For the same molecule, the TGI (UACC-62 melanoma) was 2.78 µM and 2.95 µM, the GI50 (UACC-257 melanoma) was 1.97 µM and the TGI (UACC-257 melanoma) was 3.42 µM and 3.11 µM.

`CCCCCCNC(=O)C(C)C1CCC2(C)C=CC(=O)C(C)=C2C1O` (centres undefined) was tested, and the TGI (P388/ADR leukemia) was greater than 100 µM, the TGI (CCRF-CEM leukemia) was greater than 100 µM and the TGI (HOP-18 NSCLC) was greater than 100 µM. It also gave a TGI (NCI/ADR-RES ovarian) greater than 100 µM, a TGI (HCT-15 colon) greater than 100 µM and a TGI (KM20L2 colon) greater than 100 µM. For the same molecule, the TGI (UO-31 renal) was greater than 100 µM, the TGI (OVCAR-4 ovarian) was greater than 100 µM and the TGI (SNB-78 CNS) was greater than 100 µM. For the same molecule, the TGI (SK-MEL-28 melanoma) was greater than 100 µM, the TGI (DMS 114 small cell lung) was greater than 100 µM and the TGI (SF-268 CNS) was greater than 100 µM. The TGI (RPMI-8226 leukemia) was greater than 100 µM, the TGI (CAKI-1 renal) was greater than 100 µM and the TGI (DMS 273 small cell lung) was greater than 100 µM. It also gave a TGI (A549 NSCLC) greater than 100 µM, a TGI (HCC-2998 colon) greater than 100 µM and a TGI (SF-539 CNS) greater than 100 µM. The TGI (OVCAR-8 ovarian) was greater than 100 µM, the TGI (SF-295 CNS) was greater than 100 µM and the TGI (SW-620 colon) was greater than 100 µM. The TGI (DLD-1 colon) was greater than 100 µM, the TGI (P388 leukemia) was greater than 100 µM and the TGI (NCI-H23 lung) was greater than 100 µM. The TGI (HL-60(TB) leukemia) was greater than 100 µM, the TGI (MCF7 breast) was greater than 100 µM and the TGI (K-562 leukemia) was greater than 100 µM. For the same molecule, the TGI (SNB-75 CNS) was greater than 100 µM, the TGI (NCI-H226 lung) was greater than 100 µM and the TGI (SN12K1 renal) was greater than 100 µM. The TGI (RXF 393 renal) was greater than 100 µM, the TGI (KM12 colon) was greater than 100 µM and the TGI (OVCAR-5 ovarian) was greater than 100 µM. For the same molecule, the TGI (XF 498 CNS) was greater than 100 µM, the TGI (HOP-92 NSCLC) was greater than 100 µM and the TGI (SK-MEL-2 melanoma) was greater than 100 µM. For the same molecule, the TGI (HT29 colon) was greater than 100 µM, the TGI (SK-MEL-5 melanoma) was greater than 100 µM and the TGI (IGROV1 ovarian) was greater than 100 µM. It also gave a TGI (OVCAR-3 ovarian) greater than 100 µM, a TGI (LOX IMVI melanoma) greater than 100 µM and a TGI (SK-OV-3 ovarian) greater than 100 µM. It also gave a TGI (COLO 205 colon) greater than 100 µM, a TGI (MOLT-4 leukemia) greater than 100 µM and a TGI (A498 renal) greater than 100 µM. It also gave a TGI (EKVX NSCLC) greater than 100 µM, a TGI (SN12C renal) greater than 100 µM and a TGI (HCT-116 colon) greater than 100 µM. It also gave a TGI (NCI-H522 lung) greater than 100 µM, a TGI (HOP-62 NSCLC) greater than 100 µM and a TGI (NCI-H460 lung) greater than 100 µM. It also gave a TGI (SNB-19 CNS) greater than 100 µM, a TGI (U251 CNS) greater than 100 µM and a TGI (UACC-62 melanoma) greater than 100 µM. For the same molecule, the TGI (UACC-257 melanoma) was greater than 100 µM.

From PubChem BioAssay (NCI)
